Experimental data as given in publication PMC9551036, “A selective and orally bioavailable VHL-recruiting PROTAC achieves SMARCA2 degradation in vivo” (Nature Communications, 2022).
Values joined by “and” are separate entries in the source; they are usually repeats but may differ in a detail not shown here. Equal values may be shown once. Read-outs that look alike come from different tables or passages of the source.

Legend:
Microsomal stability = type: in vitro ADME; settings: for Mic. Stab. Mouse / Mic. Stab. Mouse QH: mouse liver microsomes; for Mic. Stab. Rat / Mic. Stab. Rat QH: rat liver microsomes
Description: […] Reactions were terminated by addition of acetonitrile and precipitates separated by centrifugation. Compound concentrations in supernatants were measured by HPLC-MS/MS and clearance was calculated from compound half-lives using the well-stirred liver model.

[1] = system: VCB: PROTAC: SMARCA2^BD ternary complex; test: TR-FRET ternary complex affinity and cooperativity, SMARCA2; type: binding, human; settings: ratio TR-FRET EC50 / TR-FRET EC50 +VCB measured in the same run, SMARCA2BD
SMARCA2^BD = molecular target: T1, SMARCA2^BD (Homo sapiens, UniProt P51531); test: SPR binding to immobilised SMARCA2 bromodomain
T1 construct: P51531-2, residues 1373-1493 with additional N-terminal SM residues; GST (TEV site) (N, cleaved yes); made in house; host or cells: Escherichia coli BL21(DE3)
Description: (§1) SMARCA4^BD was provided by the Structural Genomics Consortium (SGC), Toronto[32] and SMARCA2^BD and PRM1^BD5 were synthesised by GeneArt then subcloned into pDEST15 vectors (Invitrogen). The VCB complex was expressed and purified as described previously, with the modification that 0.3 mM IPTG was used for induction of expression. […] Both were stored in 20 mM 4-(2-hydroxyethyl)−1-piperazineethanesulfonic acid (HEPES), 150 mM sodium chloride and 1 mM tris(2-carboxyethyl)phosphine (TCEP) pH 7.5. SMARCA2^BD, SMARCA4^BD and PBRM1^BD5 were expressed in Escherichia coli BL21(DE3) as N-terminal GST fusion proteins with a TEV protease cleavage site. Expression and purification of these proteins has been described previously[32],[33]. Starter cultures were grown overnight at 37 °C in 10 mL of Luria-Bertani (LB) medium with ampicillin (100 μg/mL). The starter cultures were diluted (1:100) in Terrific Broth (TB) medium with ampicillin (100 μg/mL) and grown in a shaking incubator at 37 °C to an optical density (OD600) ~1 before the temperature was lowered for induction (to 23 °C for SMARCA2^BD or 18 °C for SMARCA4^BD and PRRM1^BD5). […] Cells were harvested by centrifugation and stored at −80 °C prior to purification. […] The Lysis buffers were as follows: for SMARCA2^BD: 50 mM HEPES, 500 mM sodium chloride, 5% glycerol, 5 mM dithiothreitol (DTT); for SMARCA4^BD: 25 mM HEPES, 0.3 M sodium chloride, 5% glycerol, 10 mM DTT, pH 7.5; for PBRM1^BD5: 25 mM HEPES, 300 mM sodium chloride, 5% glycerol, 10 mM DTT, pH 7.8; in each case supplemented with complete protease inhibitors (Roche). Affinity purification was performed using Glutathione Sepharose 4B (GE Healthcare) in batch mode or on-column. […] For SMARCA2^BD, prior to TEV protease cleavage the eluted GST-tagged BD was first dialysed into desalting buffer (20 mM HEPES, 250 mM sodium chloride, pH 7.0 + 0.5% glycerol). Where TEV cleavage was performed in solution, a second affinity (GST-trap) column purification step was carried out to remove the GST-tag and uncleaved GST-tagged protein. Proteins were further purified by SEC (HiLoad Superdex-75, 16/600) (GE Healthcare) and stored in Storage buffer (for SMARCA2^BD: 20 mM HEPES, 150 mM sodium chloride, pH 7.5; for SMARCA4^BD: 10 mM HEPES, 0.5 M NaCl, 5% glycerol, pH 7.5; for PBRM1^BD5: 20 mM HEPES, 300 mM NaCl, 5 mM DTT, pH 7.8). For AlphaScreen assays, eluted GST-tagged BDs were purified directly by SEC in the respective storage buffers without TEV cleavage. All chromatography purification steps were performed either at room temperature or 4 °C using an ÄKTA FPLC purification system (GE Healthcare) or a plastic Econo-Pac column (Bio-Rad).
(§2) SPR data were acquired on Biacore 8K or T200 instruments (Cytiva). Target proteins were immobilised at 25 °C on CM5 chips by amine coupling (EDC/NHS, Cytiva) in HBS-P+ running buffer (pH 7.4), containing 2 mM TCEP. […] The reference surface was subsequently deactivated using 1 M ethanolamine. […] Biotinylated VCB was prepared as previously described[27]: in brief, the complex was mixed 1:1 with EZ-Link NHS–PEG4–biotin (Thermo Scientific) and incubated at room temperature for 1 h. Unreacted NHS-biotin was removed using a PD-10 desalting column (Cytiva) into 20 mM HEPES, pH 7.5, 150 mM sodium chloride and 1 mM DTT. The reference surface was generated by deactivating the EDC/NHS-treated surface with 1 M ethanolamine. All interaction experiments were done at 6 °C in running buffer (20 mM TRIS, pH 8.3, 150 mM potassium chloride, 2 mM magnesium chloride, 2 mM TCEP, 0.005% TWEEN 20, 1% dimethyl sulfoxide). For ternary complex measurements, a sensor chip surface with VCB immobilised was used (preparation as described above). Experiments were run in dual-inject mode with 10 µM SMARCA present during the injection and dissociation phase. Sensorgrams from reference surfaces and blank injections were subtracted from the raw data prior to data analysis using Biacore Insight software.

VCB complex = molecular target: T2, VCB complex (Homo sapiens, UniProt P40337); test: SPR binary binding to immobilised VCB complex
T2 construct: His6 (TEV site) (N, cleaved yes); made in house
Description: as §1, §2

[2] = SPR, SMARCA2BD, mean ± SD, read-out: SMARCA2 KD
[3] = SPR, individual replicates, read-out: SMARCA2 KD
[4] = binary binding to VCB, mean ± SD

T2 sequence (P40337 54-213): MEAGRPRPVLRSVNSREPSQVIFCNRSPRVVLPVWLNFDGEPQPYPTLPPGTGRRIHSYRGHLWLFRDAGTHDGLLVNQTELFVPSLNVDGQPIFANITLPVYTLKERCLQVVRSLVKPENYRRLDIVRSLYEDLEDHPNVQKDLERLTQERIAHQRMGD
T2 sequence (Q15369 17-112 partner limits assumed): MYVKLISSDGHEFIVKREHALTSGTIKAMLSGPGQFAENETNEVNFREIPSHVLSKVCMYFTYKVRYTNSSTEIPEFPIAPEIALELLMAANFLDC
T2 sequence (Q15370 1-104 partner limits assumed): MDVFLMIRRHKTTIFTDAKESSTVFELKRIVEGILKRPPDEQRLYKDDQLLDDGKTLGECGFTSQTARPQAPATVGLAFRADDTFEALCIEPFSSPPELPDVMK
T1 sequence (P51531 1373-1493 isoform P51531-2): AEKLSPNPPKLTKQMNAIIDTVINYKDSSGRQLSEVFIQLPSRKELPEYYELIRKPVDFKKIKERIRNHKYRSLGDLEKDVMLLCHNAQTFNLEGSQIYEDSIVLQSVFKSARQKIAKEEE

| SMILES | Mic. Stab. Human (Microsomal stability; human liver microsomes) [% QH] | Mic. Stab. Human QH (Microsomal stability; human liver microsomes) | Mic. Stab. Mouse (Microsomal stability) [% QH] | Mic. Stab. Mouse QH (Microsomal stability) | Mic. Stab. Rat (Microsomal stability) [% QH] | Mic. Stab. Rat QH (Microsomal stability) | cooperativity α (SMARCA2BD) [1] | Kd (SMARCA2^BD; [2]) [nM] | Kd (SMARCA2^BD; [3]) | Kd (VCB complex; [4]) [nM] | Kd (SMARCA2^BD; read-out: SMARCA2^BD SPR KD) [nM] | koff (SMARCA2^BD) [s⁻¹] | kon (SMARCA2^BD) [M⁻¹ s⁻¹] | Kd (VCB complex; binary, individual replicates) | microsomal stability (Microsomal stability) | Mic. Stab. Human degradation without NADPH (Microsomal stability; human liver microsomes, without NADPH) [%] |
| --- | --- | --- | --- | --- | --- | --- | --- | --- | --- | --- | --- | --- | --- | --- | --- | --- |
| Cc1ncsc1-c1ccc(C(CCC(C)CCN2CCC(c3ccc4c(c3)n(C3CCCC3)c3nc(=O)c5c(Br)cccc5n43)CC2)NC(=O)C2CC(O)CN2C(=O)C(NC(=O)C2(F)CC2)C(C)(C)C)cc1 (stereo not drawn) [ACBI2] | <24 | <24.400 <24.400 <24.400 <24.400% | <24 | <24.200 <24.200 <24.200 <24.200% | <23 | <23.100 <23.100 <23.100 <23.100% | 4.6 ± 2.2 | 208 ± 39 | 250 nM and 202 nM and 173 nM | 28 ± 35 | – | – | – | – | – | – |
| O=c1nc2n(C3CCCC3)c3ccccc3n2c2cccc(Br)c12 [compound 1] | – | 87.940% and 88.090% | – | 86.850% | – | 87.000% and 86.360% | – | 1060 ± 258 | 1050 nM and 804 nM and 1320 nM | – | – | – | – | – | – | – |
| Nc1cccc2c1c(=O)nc1n(C3CCCC3)c3ccccc3n21 [compound 2] | – | 91.040% | – | – | – | 88.170% | – | 1160 ± 421 | 826 nM and 632 nM and 916 nM and 1490 nM and 1420 nM and 1670 nM | – | 1160 | – | – | – | – | – |
| CN1CCC(c2ccc3c(c2)n(C2CCCC2)c2nc(=O)c4c(Br)cccc4n32)CC1 [compound 3] | <24 | <24.400% | 43 ± 10 | 34.400% and 53.600% and 50.410% | 28 ± 1 | < 23.100% and 27.400% and 28.840% | – | 46 ± 5 | 72.2 nM and 83 nM and 78.7 nM and 50.7 nM and 44.6 nM and 41.5 nM | – | 46 | 0.09 ± 0.01 | 1.98e+06 ± 130000 | – | – | – |
| Cc1ncsc1-c1ccc([C@H](COC(C)CN2CCC(c3ccc4c(c3)n(C3CCCC3)c3nc(=O)c5c(Br)cccc5n43)CC2)NC(=O)[C@@H]2C[C@@H](O)CN2C(=O)[C@@H](NC(=O)C2(F)CC2)C(C)(C)C)cc1 (stereo partly drawn) [compound 9] | 55 ± 1 | 54.100% and 55.600% | 27 ± 3 | 24.700% and 28.800% and < 24.200% | <23 | <23.100 <23.100 <23.100% | 7.0 ± 2.6 | 263 ± 9 | 260 nM and 273 nM and 257 nM | 34 ± 6 | – | – | – | 39.9 nM and 37.9 nM and 30.4 nM and 26.2 nM | – | – |
| Cc1ncsc1-c1ccc([C@H](COC(C)CN2CCC(c3ccc4c(c3)n(C3CCCC3)c3nc(=O)c5c(Br)cccc5n43)CC2)NC(=O)[C@@H]2C[C@@H](O)CN2C(=O)[C@@H](NC(=O)C2(N(C)C)CC2)C(C)(C)C)cc1 (stereo partly drawn) [compound 10] | 86 | 85.500% | 68 ± 2 | 66.900% and 69.700% | 51 ± 2 | 49.700% and 52.900% | 10.1 ± 3.8 | 222 ± 6 | 228 nM and 218 nM and 219 nM | 124 ± 97 | – | – | – | 76.7 nM and 269 nM and 65.4 nM and 86 nM | – | – |
| Cc1ncsc1-c1ccc([C@H](CCCCCN2CCC(c3ccc4c(c3)n(C3CCCC3)c3nc(=O)c5c(Br)cccc5n43)CC2)NC(=O)[C@@H]2C[C@@H](O)CN2C(=O)[C@@H](NC(=O)C2(F)CC2)C(C)(C)C)cc1 [compound 11] | <24 | <24.400 <24.400 <24.400 <24.400% | <24 | <24.200 <24.200 <24.200 <24.200 <24.200 <24.200 <24.200 <24.200% | <23 | <23.100 <23.100 <23.100 <23.100 <23.100 <23.100 <23.100 <23.100% | 5.3 ± 2.1 | – | 148 nM and 144 nM and 140 nM | 9 ± 3 | – | – | – | 11.2 nM and 11.4 nM and 9.47 nM and 7.94 nM and 8.34 nM and 7.19 nM and 5.73 nM and 11.9 nM and 4.42 nM | good microsomal stability | – |
| Cc1ncsc1-c1ccc([C@H](CC[C@H](C)CCN2CCC(c3ccc4c(c3)n(C3CCCC3)c3nc(=O)c5c(Br)cccc5n43)CC2)NC(=O)[C@@H]2C[C@H](O)CN2C(=O)[C@@H](NC(=O)C2(F)CC2)C(C)(C)C)cc1 [compound 12] | <24 | 31.400% | <24 | <24.200 NADPH control off limits % | <23 | <23.100% | 1.1 ± 0.3 | 214 ± 15 | 202 nM and 231 nM and 209 nM | 629 ± 88 | – | – | – | 566 nM and 691 nM | – | 60 |
| CN1CCN(c2nc(=O)c3c(Cl)cccc3o2)CC1 [compound 13] | – | – | – | – | – | – | – | 24500 ± 2170 | 26500 nM and 24900 nM and 22200 nM | – | – | – | – | – | – | – |
| CN1CCN(c2nc(=O)c3c(Br)cccc3o2)CC1 [compound 15] | – | – | – | – | – | – | – | 9000 ± 526 | 8910 nM and 9570 nM and 8530 nM | – | – | – | – | – | – | – |
| CN1CCN(c2nc(=O)c3c(I)cccc3o2)CC1 [compound 16] | – | – | – | – | – | – | – | 17900 ± 917 | 18100 nM and 16900 nM and 18700 nM | – | – | – | – | – | – | – |
| Cc1ncsc1-c1ccc(CNC(=O)[C@@H]2C[C@H](O)CN2C(=O)[C@@H](NC(=O)C2(F)CC2)C(C)(C)C)c(OCCN2CCC(c3ccc4c(c3)n(C3CCCC3)c3nc(=O)c5c(Br)cccc5n43)CC2)c1 [compound 19] | 82 | 81.450% | 68 | 67.500% | 28 | 27.950% | 1.2 ± 0.1 | 64 ± 4 | 68.8 nM and 62.9 nM and 60.9 nM | – | – | – | – | – | – | – |
| Cc1ncsc1-c1ccc(CNC(=O)[C@@H]2C[C@@H](O)CN2C(=O)[C@@H](NC(=O)C2(F)CC2)C(C)(C)C)c(OCCN2CCC(c3ccc4c(c3)n(C3CCCC3)c3nc(=O)c5c(Br)cccc5n43)CC2)c1 [compound 20] | 89 ± 7 | 92.780% and 92.740% and 91.810% and 92.050% and 77.420% | 76 ± 2 | 73.270% and 75.530% and 75.780% and 78.330% | 33 ± 3 | 34.870% and 29.970% and 29.780% and 36.100% and < 23.080% | 0.6 ± 0.2 | 104 ± 6 | 103 nM and 98.8 nM and 110 nM | 9 ± 7 | – | – | – | 6.64 nM and 20.3 nM and 5.1 nM and 5.19 nM | – | – |
